Starred links: 1 amine or outer side, 2 acyl side, 3 side chain; linkers in the order of their positions; H or OH if unused. Positions of bridges follow the written chain, without caps; N, C: chain ends. Non-standard residues stand in square brackets, D forms with d. Residues, ends and D or L forms follow the SMILES beside them. TATB = O=C(C[*:1])N1CN(C(=O)C[*:2])CN(C(=O)C[*:3])C1; Hyp = O=C(O)[C@@H]1C[C@@H](O)CN1; Tle = CC(C)(C)[C@H](N)C(=O)O

Sequence of Human TfR1 (P02786 89-760): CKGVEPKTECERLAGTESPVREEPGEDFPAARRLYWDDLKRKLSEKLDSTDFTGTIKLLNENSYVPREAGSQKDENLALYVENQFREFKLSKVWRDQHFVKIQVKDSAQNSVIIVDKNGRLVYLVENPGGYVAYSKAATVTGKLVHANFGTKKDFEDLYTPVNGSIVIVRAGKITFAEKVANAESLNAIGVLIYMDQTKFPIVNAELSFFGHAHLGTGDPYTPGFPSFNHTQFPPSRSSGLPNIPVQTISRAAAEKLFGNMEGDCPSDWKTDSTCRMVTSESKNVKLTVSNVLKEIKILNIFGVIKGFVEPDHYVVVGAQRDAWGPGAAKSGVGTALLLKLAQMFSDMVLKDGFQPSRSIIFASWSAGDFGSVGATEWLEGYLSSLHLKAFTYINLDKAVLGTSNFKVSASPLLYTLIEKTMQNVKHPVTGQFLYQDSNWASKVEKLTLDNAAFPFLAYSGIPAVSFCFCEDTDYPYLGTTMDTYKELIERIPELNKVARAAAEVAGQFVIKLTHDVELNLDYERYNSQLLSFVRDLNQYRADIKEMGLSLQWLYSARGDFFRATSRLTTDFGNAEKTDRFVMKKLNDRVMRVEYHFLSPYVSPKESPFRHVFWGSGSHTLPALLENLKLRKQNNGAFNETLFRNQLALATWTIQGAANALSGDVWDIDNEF

This assay addresses Human TfR1 (Homo sapiens, UniProt P02786). Nature of the assay: biochemical.
Procedure: Recombinant human and cynomolgus TfR1 were received from Bicycle as Hiss-tagged TfR1 (a.a. 89-760) (ACRO Biosystems, CD1-H5243 and TFR-C524a).
For analysis of TfR1 peptide binding, a Biacore T200 or S200 instrument was used utilising a capture/coupling approach with a Cytiva NTA chip at 25° C. with 25 mM HEPES, 0.1M NaCl, 0.05% Tween 20 pH 7.4 as the running buffer. Immobilisation was carried out as follows. The chip was pre-equilibrated with an injection of 500 mM EDTA (pH 8), before activation with 5 mM NiSO4. The surface was then activated using standard amine-coupling chemistry. Briefly, the carboxymethyl dextran surface was activated with a 1:1 ratio of 0.4 M 1-ethyl-3-(3-dimethylaminopropyl) carbodiimide hydrochloride (EDC)/0.1 M N-hydroxy succinimide (NHS). The TfR1 protein (human or cynomolgus) was then captured onto the activated surface after dilution into running buffer to 200 nM and 250 nM respectively. Residual activated groups were blocked with a 7 min injection of 1 M ethanolamine (pH 8.5):HBS-N(1:1). Reference surfaces were activated and blocked as above with no TfR1 protein capture. Capture levels were in the range of 1,500-5,000 RU dependent upon the individual study Buffer was changed to 25 mM HEPES, 0.1M NaCl, 0.05% Tween 20 pH 7.4 1% DMSO.
A dilution series of test peptides was prepared in this buffer with a top peptide concentration of 5 μM and 6 further 2-fold dilutions. The SPR analysis was run at 25° C. at a flow rate of 30 μl/min with 160 seconds association and 700-800 seconds dissociation. Data were corrected for DMSO excluded volume effects. All data were double-referenced for blank injections and reference surface using standard processing procedures and data processing and kinetic fitting were performed using Scrubber software, version 2.0c (BioLogic Software). Data were fitted using simple 1:1 binding model allowing for mass transport effects where appropriate.
As for `CC(=O)N[C@H]1CSCC(=O)N2CN3CN(C2)C(=O)CSC[C@@H](C(=O)N[C@@H](CCC(=O)O)C(=O)N2CCC[C@H]2C(=O)N[C@@H](Cc2c[nH]c4ccccc24)C(N)=O)NC(=O)[C@H](Cc2ccc(O)cc2)NC(=O)[C@H](CO)NC(=O)[C@H](C(C)(C)C)NC(=O)[C@H](CSCC3=O)NC(=O)CNC(=O)[C@H](CC(C)C)NC(=O)[C@H](Cc2ccc(O)cc2)NC(=O)[C@H](C)NC(=O)[C@H](CC(=O)O)NC(=O)[C@@H]2C[C@@H](O)CN2C(=O)[C@@H]2C[C@@H](O)CN2C1=O` [BCY23180, C[HyP][HyP]DAYLGC[tBuGly]SYCEPW], binding was put at a Kd of 50 nM.
Then `CC(=O)N[C@H]1CSCC(=O)N2CN3CN(C2)C(=O)CSC[C@@H](C(=O)N[C@@H](CCC(=O)O)C(=O)N2CCC[C@H]2C(=O)N[C@@H](Cc2ccc(O)cc2)C(N)=O)NC(=O)[C@H](Cc2ccc(O)cc2)NC(=O)[C@H](CO)NC(=O)[C@H](C(C)(C)C)NC(=O)[C@H](CSCC3=O)NC(=O)CNC(=O)[C@H](CC(C)C)NC(=O)[C@H](Cc2ccc(O)cc2)NC(=O)[C@H](C)NC(=O)[C@H](CC(=O)O)NC(=O)[C@@H]2C[C@@H](O)CN2C(=O)[C@@H]2CCCN2C1=O` [BCY23207, CP[HyP]DAYLGC[tBuGly]SYCEPY], with 7.7 nM.
Then `CC(=O)N[C@H]1CSCC(=O)N2CN3CN(C2)C(=O)CSC[C@@H](C(=O)N[C@@H](CCC(=O)O)C(=O)N2CCC[C@H]2C(=O)N[C@@H](CCc2ccc(O)cc2)C(N)=O)NC(=O)[C@H](Cc2ccc(O)cc2)NC(=O)[C@H](CO)NC(=O)[C@H](C(C)(C)C)NC(=O)[C@H](CSCC3=O)NC(=O)CNC(=O)[C@H](CC(C)C)NC(=O)[C@H](Cc2ccc(O)cc2)NC(=O)[C@H](C)NC(=O)[C@H](CC(=O)O)NC(=O)[C@@H]2C[C@@H](O)CN2C(=O)[C@@H]2CCCN2C1=O` [BCY23211, CP[HyP]DAYLGC[tBuGly]SYCEP[hTyr]], with 7.7 nM; and `CC(=O)N[C@H]1CSCC(=O)N2CN3CN(C2)C(=O)CSC[C@@H](C(=O)N[C@@H](CCC(=O)O)C(=O)N2CCC[C@H]2C(=O)N[C@@H](Cc2c[nH]c4ccccc24)C(N)=O)NC(=O)[C@H](Cc2ccc(O)cc2)NC(=O)[C@H](CO)NC(=O)[C@H](C(C)(C)C)NC(=O)[C@H](CSCC3=O)NC(=O)CNC(=O)[C@H](CCC(N)=O)NC(=O)[C@H](Cc2ccc(O)cc2)NC(=O)[C@H](C)NC(=O)[C@H](CC(=O)O)NC(=O)[C@@H]2C[C@@H](O)CN2C(=O)[C@@H]2CCCN2C1=O` [BCY23223, CP[HyP]DAYQGC[tBuGly]SYCEPW] (Ac-CP[Hyp]DAYQGC[Tle]SYCEPW-NH2; linker 1-9-13 via TATB), with 50 nM.

The values are drawn from patent US20250276073A1, “BICYCLIC PEPTIDE LIGANDS SPECIFIC FOR TRANSFERRIN RECEPTOR 1 (TfR1)” (BicycleTx Limited, priority 2022, published 2025).
